Laboratory results from patent US9610285B2, “Compositions for controlling food intake and uses therefor” (UNIVERSITY OF FLORIDA RESEARCH FOUNDATION, INCORPORATED, priority 2011, dated 2017).
Counter-ions that a name gives are not always drawn. Marks after values point to notes of the source that are not given here.

What was measured:
Type in all cases: in vivo, rat
rats = experiment: Binge eating rats, palatable food and chow intake (Example 1, FIGS. 1-5); conditions: drug alone, i.p., figure legends
Protocol: Baclofen (at 1.0 and 1.8 mg/kg, administered i.p.)
Baclofen+naltrexone (mixed low and mixed high)
1. Binge Sugar (10% sucrose solution, w/v)
2. Binge Fat (35% oil emulsion, w/v)
3. Binge Sugar/Fat (10% sucrose, 35% oil emulsion, w/v)
Groups of animals (rats) were maintained on their diets for 3 weeks to establish stable binge eating behavior. After this period of time, the rats were administered three days of daily i.p. injections of saline (to acclimate to the injection procedure), and sugar/chow intake was measured after the first hour of access and then hourly for the next 3 hours, as well as at the end of the 12-h access period. After this three-day period, rats were given baclofen+naloxone, and measurements taken as described above. Other dosage amounts of baclofen and naloxone were tested, as were the effects of these compounds alone (with measurements being performed as described above). Vehicle injections were performed between the various tests in order to allow for suitable clearance of compounds from the animals. […] Thus, the treatment appears ideally suited for food addicts, hedonic overeaters and changes food choice but not appetite.

Male Sprague-Dawley rats [1] = experiment: Standard chow intake following drug injections in binge-eating rats (Example 2); conditions: for Effect on standard chow intake, in words: one-way ANOVA over saline, low and high dose
Text: (§1) Male Sprague-Dawley rats, 250-300 g at the onset of the experiment, were obtained from Taconic Farms (Germantown, N.Y., USA). Rats were housed individually on a 12-h reversed light/dark cycle and given 1 wk to acclimate before diet training began.
(§2) The rats were divided into groups (n=10/group) matched for body weight and assigned to one of the following dietary conditions: (1) Binge Sugar, (2) Binge Fat or (3) Binge Sugar-Fat. All rats received palatable diets and standard rodent chow (LabDiet #5001, PMI Nutrition International, Richmond, Ind., USA; 10% fat, 20% protein, 70% carbohydrate, 3.02 kcal/g) for 12 h/day, starting 4 h after the onset of the dark cycle. Water was available ad libitum.
(§3) All palatable foods were mixed in the laboratory. The Binge Sugar group had access to a 10% (w/v) sucrose solution (Domino® Granulated Pure Cane Sugar, dissolved in tap water, 0.4 kcal/mL), the Binge Fat group had access to a 35% (w/v) fat emulsion (3.1 kcal/mL) and the Binge Sugar-Fat group had access to a 10% (w/v) sugar solution and 35% (w/v) fat emulsion (3.5 kcal/mL). Both emulsions were made with Wesson® Pure Vegetable Oil in tap water and 0.6% (w/v) Emplex, a commercially available emulsifier (American Ingredients Company, Kansas City, Mo., USA). Palatable food intakes were recorded daily. Chow intake was recorded weekly. Body weights were taken at the beginning and end of the 21-day diet period.
(§4) After 21 days on these diets, drug testing began. During testing, diet regimens were maintained. Approximately 3.5 h into the dark cycle, animals were weighed and intraperitoneal (i.p.) injections of drug were given (according to the schedule below). 30 min later (4 h into the dark cycle) palatable food and chow were made available to the rats. For the first 3 days, rats were acclimated to handling and daily vehicle injections (0.9% saline, Hospira, Lake Forest, Ill., USA, i.p. 1 mL/kg). For days 4-16 of drug testing, either vehicle or drug was alternatively administered, starting with drug on day 4. […] Intake of palatable food and chow was measured hourly after injection for 4 h and again at the end of the 12-h access period.
(§5) Palatable food and standard chow intakes following saline injections between days 4-16 were averaged. All data were analyzed using one-way ANOVAs with post hoc Multiple Comparisons, when appropriate. In Tables 4-7, values having the same letter superscript are statistically different from one another.

Male Sprague-Dawley rats [2] = experiment: Total caloric intake following drug injections in binge-eating rats (Example 2); conditions: for Effect on total caloric intake, in words: one-way ANOVA over saline, low and high dose
Text: as §1, §2, §3, §4, §5

Male Sprague-Dawley rats [3] = experiment: Palatable food intake following drug injections in binge-eating rats (Example 2); conditions: for Effect on palatable food (fat) intake, in words / Effect on palatable food (sugar) intake, in words / Effect on palatable food (sugar-fat) intake, in words: one-way ANOVA over saline, low and high dose
Text: as §1, §2, §3, §4, §5

[4] = Binge Fat group, 1 h, high dose (naltrexone 1.0 mg/kg, baclofen 1.8 mg/kg, or both, i.p.)
[5] = Binge Fat group, 1 h, low dose (naltrexone 0.1 mg/kg, baclofen 1.0 mg/kg, or both, i.p.)
[6] = Binge Fat group, 12 h, high dose (naltrexone 1.0 mg/kg, baclofen 1.8 mg/kg, or both, i.p.)
[7] = Binge Fat group, 12 h, low dose (naltrexone 0.1 mg/kg, baclofen 1.0 mg/kg, or both, i.p.)
[8] = Binge Sugar group, 1 h, high dose (naltrexone 1.0 mg/kg, baclofen 1.8 mg/kg, or both, i.p.)
[9] = Binge Sugar group, 1 h, low dose (naltrexone 0.1 mg/kg, baclofen 1.0 mg/kg, or both, i.p.)
[10] = Binge Sugar group, 12 h, high dose (naltrexone 1.0 mg/kg, baclofen 1.8 mg/kg, or both, i.p.)
[11] = Binge Sugar group, 12 h, low dose (naltrexone 0.1 mg/kg, baclofen 1.0 mg/kg, or both, i.p.)
[12] = Binge Sugar-Fat group, 1 h, high dose (naltrexone 1.0 mg/kg, baclofen 1.8 mg/kg, or both, i.p.)
[13] = Binge Sugar-Fat group, 1 h, low dose (naltrexone 0.1 mg/kg, baclofen 1.0 mg/kg, or both, i.p.)
[14] = Binge Sugar-Fat group, 12 h, high dose (naltrexone 1.0 mg/kg, baclofen 1.8 mg/kg, or both, i.p.)
[15] = Binge Sugar-Fat group, 12 h, low dose (naltrexone 0.1 mg/kg, baclofen 1.0 mg/kg, or both, i.p.)

## O=C1CC[C@@]2(O)[C@H]3Cc4ccc(O)c5c4[C@@]2(CCN3CC2CC2)[C@H]1O5 [Naltrexone, naltrexone hydrochloride]
rats; oil containing groups (Binge Fat, Binge Sugar/Fat)
  Effect on intake of oil-containing palatable foods: trend toward reducing food intake
rats; sugar-binging rats
  Effect on binge eating of sugar: no effect
Male Sprague-Dawley rats [1]; [4]
  1-H Chow Intake: 10.1 ± 1.2 kcal
Male Sprague-Dawley rats [1]; [5]
  1-H Chow Intake: 8.5 ± 1.1 kcal
Male Sprague-Dawley rats [1]; [6]
  12-H Chow Intake: 37.0 ± 3.4 kcal
Male Sprague-Dawley rats [1]; [7]
  12-H Chow Intake: 34.1 ± 4.3 kcal
Male Sprague-Dawley rats [1]; [8]
  1-H Chow Intake: 20.1 ± 1.3 kcal
Male Sprague-Dawley rats [1]; [9]
  1-H Chow Intake: 25.5 ± 3.2 kcal
Male Sprague-Dawley rats [1]; [10]
  12-H Chow Intake (Kcal): 78.6 ± 4.7^b Kcal
Male Sprague-Dawley rats [1]; [11]
  12-H Chow Intake (Kcal): 73.7 ± 5.1^a Kcal
Male Sprague-Dawley rats [1]; [12]
  1-H Chow Intake: 7.1 ± 0.9 kcal
Male Sprague-Dawley rats [1]; [13]
  1-H Chow Intake: 6.6 ± 1.0 kcal
Male Sprague-Dawley rats [1]; Binge Sugar-Fat group, 1 h
  Effect on standard chow intake, in words: no effect
Male Sprague-Dawley rats [1]; [14]
  12-H Chow Intake: 27.4 ± 2.6 kcal
Male Sprague-Dawley rats [1]; [15]
  12-H Chow Intake: 26.4 ± 1.9 kcal
Male Sprague-Dawley rats [1]; Binge Sugar-Fat group, 12 h
  Effect on standard chow intake, in words: no effect
Male Sprague-Dawley rats [1]; Fat group, 1 h
  Effect on standard chow intake, in words: no effect
Male Sprague-Dawley rats [1]; Fat group, 12 h
  Effect on standard chow intake, in words: no effect
Male Sprague-Dawley rats [1]; Sugar group, 1 h
  Effect on standard chow intake, in words: no effect
Male Sprague-Dawley rats [1]; Sugar group, 12 h
  Effect on standard chow intake, in words: stimulated chow intake
Male Sprague-Dawley rats [2]; [4]
  1-H Total Caloric Intake: 19.9 ± 3.2 kcal
Male Sprague-Dawley rats [2]; [5]
  1-H Total Caloric Intake: 20.2 ± 3.0 kcal
Male Sprague-Dawley rats [2]; [6]
  12-H Total Caloric Intake: 90.3 ± 8.3 kcal
Male Sprague-Dawley rats [2]; [7]
  12-H Total Caloric Intake: 84.0 ± 7.9 kcal
Male Sprague-Dawley rats [2]; [8]
  1-H Total Caloric Intake: 22.6 ± 1.7 kcal
Male Sprague-Dawley rats [2]; [9]
  1-H Total Caloric Intake (Kcal): 29.9 ± 3.9^a Kcal
Male Sprague-Dawley rats [2]; [10]
  12-H Total Caloric Intake: 89.4 ± 6.4 kcal
Male Sprague-Dawley rats [2]; [11]
  12-H Total Caloric Intake: 85.4 ± 7.5 kcal
Male Sprague-Dawley rats [2]; [12]
  1-H Total Caloric Intake: 24.8 ± 4.4 kcal
Male Sprague-Dawley rats [2]; [13]
  1-H Total Caloric Intake: 23.9 ± 2.7 kcal
Male Sprague-Dawley rats [2]; [14]
  12-H Total Caloric Intake: 110.7 ± 10.7 kcal
Male Sprague-Dawley rats [2]; [15]
  12-H Total Caloric Intake: 97.0 ± 5.7 kcal
Male Sprague-Dawley rats [2]; Fat group, 1 h
  Effect on total caloric intake, in words: no effect
Male Sprague-Dawley rats [2]; Fat group, 12 h
  Effect on total caloric intake, in words: no effect
Male Sprague-Dawley rats [2]; Sugar group, 1 h
  Effect on total caloric intake, in words: significantly increased
Male Sprague-Dawley rats [2]; Sugar group, 12 h
  Effect on total caloric intake, in words: differences were no longer evident
Male Sprague-Dawley rats [2]; Sugar-Fat group, 1 h
  Effect on total caloric intake, in words: no effect
Male Sprague-Dawley rats [2]; Sugar-Fat group, 12 h
  Effect on total caloric intake, in words: no effect
Male Sprague-Dawley rats [3]; [4]
  1-H Palatable Food Intake: 9.9 ± 2.0 kcal
  Palatable food intake as a percent of intake after saline injections, 1-H Intake (%): 59%
Male Sprague-Dawley rats [3]; [5]
  Palatable food intake as a percent of intake after saline injections, 1-H Intake (%): 70%
Male Sprague-Dawley rats [3]; Binge Fat group, 1 h
  Effect on palatable food (fat) intake, in words: no significant effect
Male Sprague-Dawley rats [3]; [6]
  12-H Palatable Food Intake: 53.3 ± 4.5 kcal
  Palatable food intake as a percent of intake after saline injections, 12-H Intake (%): 91%
Male Sprague-Dawley rats [3]; [7]
  12-H Palatable Food Intake: 49.9 ± 3.6 kcal
  Palatable food intake as a percent of intake after saline injections, 12-H Intake (%): 85%
Male Sprague-Dawley rats [3]; Binge Fat group, 12 h
  Effect on palatable food (fat) intake, in words: no significant effect
Male Sprague-Dawley rats [3]; [8]
  1-H Palatable Food Intake (Kcal): 2.6 ± 0.4^a Kcal
  Palatable food intake as a percent of intake after saline injections, 1-H Intake (%): 92%
Male Sprague-Dawley rats [3]; [9]
  1-H Palatable Food Intake (Kcal): 4.4 ± 0.7^a Kcal
  Palatable food intake as a percent of intake after saline injections, 1-H Intake (%): 158%
Male Sprague-Dawley rats [3]; Binge Sugar group, 1 h
  Effect on palatable food (sugar) intake, in words: significantly decreased
Male Sprague-Dawley rats [3]; [10]
  12-H Palatable Food Intake (Kcal): 10.8 ± 1.8^r Kcal
  Palatable food intake as a percent of intake after saline injections, 12-H Intake (%): 85%
Male Sprague-Dawley rats [3]; [11]
  12-H Palatable Food Intake (Kcal): 18.7 ± 2.4^r Kcal
  Palatable food intake as a percent of intake after saline injections, 12-H Intake (%): 92%
Male Sprague-Dawley rats [3]; Binge Sugar group, 12 h
  Effect on palatable food (sugar) intake, in words: significantly decreased
Male Sprague-Dawley rats [3]; [12]
  1-H Palatable Food Intake: 17.6 ± 3.5 kcal
  Palatable food intake as a percent of intake after saline injections, 1-H Intake (%): 75%
Male Sprague-Dawley rats [3]; [13]
  1-H Palatable Food Intake: 17.3 ± 1.7 kcal
  Palatable food intake as a percent of intake after saline injections, 1-H Intake (%): 74%
Male Sprague-Dawley rats [3]; Binge Sugar-Fat group, 1 h
  Effect on palatable food (sugar-fat) intake, in words: no effect
Male Sprague-Dawley rats [3]; [14]
  12-H Palatable Food Intake: 83.3 ± 8.1 kcal
  Palatable food intake as a percent of intake after saline injections, 12-H Intake (%): 109%
Male Sprague-Dawley rats [3]; [15]
  12-H Palatable Food Intake: 70.6 ± 3.4 kcal
  Palatable food intake as a percent of intake after saline injections, 12-H Intake (%): 92%
Male Sprague-Dawley rats [3]; Binge Sugar-Fat group, 12 h
  Effect on palatable food (sugar-fat) intake, in words: no effect
